Measurements: US11345650B1, “Methods and systems for crystallizing and isolating individual cannabinoids” (MYKU Biosciences LLC, priority 2021, dated 2022)

Assay: Minimum concentration of CBD required for crystallization from solution
Assay type: physicochemical
Experimental: The minimum concentration of CBD required for selective crystallization from a solution containing a plurality of cannabinoids was evaluated.
The CBD-rich solution shown in Table A7 was diluted in MCT coconut oil to the aforementioned CBD concentrations. The samples were heated to 60° C. for about five minutes. Then, each solution was subjected to the following nucleation factors: agitation (intense stirring), cold shock (cooling solution to −20° C. and mixing), introduction of a CBD seed crystal, and exposure to a vacuum at a pressure of −25 inHg). Photographs of the crystallized cannabinoids were taken after 24 hours.
The experiment was also repeated using mixtures of cannabinoid CBD and THCa isolates in oleic acid.

C=C(C)[C@@H]1CCC(C)=C[C@H]1c1c(O)cc(CCCCC)cc1O [CBD, Cannabidiol]
lowest tested concentration of CBD that exhibited crystallization (CBD-rich solution with a plurality of cannabinoids diluted in MCT coconut oil, heated to 60° C., agitation, cold shock −20° C., seed crystal, vacuum −25 inHg, after 24 hours): 19.6%
lowest tested concentration of CBD that crystallized (mixtures of CBD and THCa isolates in oleic acid (FIG. 16: 24% CBD, 1% THCA, 75% oleic acid)): 24%
